{"source": "patent US4780462A", "about": "“Antihypertensive 1,5-benzothiazepine derivatives and compositions thereof” (Kotokuki Seiya Kau Co., Ltd., priority 1986, dated 1988)", "key": {"[1]": {"system": "Guinea-pig taenia caecum", "assay": "Ca++-antagonistic activity (isolated guinea-pig taenia caecum)", "settings": "Cavia porcellus, 0.05 h; Ca++-induced contraction of taenia caecum, Ca++-free Krebs Ringer; pretreatment with compound 3 minutes before; read-out: PA2 value (converted)", "procedure": "Ca^++ -Antagonistic activity. Experiments are carried out according to the method of M. Ferrari (Arch. Intern. Pharmacoadyn. 174, 223 (1968) Guinea-pig taenia caecum is isolated and suspended in a bath which is filled with Ca^++ -free Krebs Ringer solution for 30 minutes. In this condition, taenia caecum is contracted by elevating Ca^++ -ion concentration of Krebs Ringer and obtained a dose-response curve against Ca^++ -ion. Pretreatment with the compound of this invention before 3 minutes, and obtained a dose-response curve under the existence of the compound of this invention.\nFrom these two dose-response curves, PA2 value is calculated and PA2 is expressed as index of activities. (Table 1)"}, "[2]": {"system": "anesthetized normotensive rats", "assay": "Antihypertensive activity on anesthetized normotensive rats", "type": "in vivo", "settings": "dose which lowers the mean blood pressure by 15 mmHg, i.v. (femoral vein); urethane anesthetized normotensive male Wistar rats", "procedure": "The antihypertensive activities of the compounds on anesthetized normotensive rats were tested according to the method of H. Sogabe.^(1) Male Wistar rats weighing 200-300 g were anesthetized with urethane (1.2 g/kg. i.v.). Blood pressure was measured by a transducer (Nihon Koden RT-5) connected the catheter inserted into the femoral artery. The test compounds in physiological saline (0.1 ml/100 g. B.W.) were injected via the femoral vein. The antihypertensive activity was assessed by comparing with MBP15 (dose which lowers the mean blood pressure by 15 mmHg, mg/kg i.v.).\n(1) Hirobumi Sogabe \"Jikken Kouketsuatsushou nyuumon\" p227 (Eikoudo 1968)."}, "[3]": {"assay": "Acute toxicity in mice per os", "settings": "mouse, in vivo, po", "source_text": "The acute toxicity of the compounds of this invention in mice per os is as follows. (Table 4)"}, "[4]": {"system": "isolated guinea-pig heart", "assay": "Coronary artery dilating activity (Rangendorf method, isolated guinea-pig heart)", "settings": "coronary blood flow examined for 2 minutes", "source_text": "The coronary artery dilating activity of the compounds is estimated by Rangendorf method (Pfugers. Arch. Ges. Physiol. 62, 291 (1895)) using the isolated guinea-pig heart."}}}
{"compound": "COc1cccc(OC)c1OCCNCCC(=O)N1CCCSc2ccccc21", "note": "[Compound 1, 5-[3-(2-(2-,6-dimethoxyphenoxy)ethylamino)-propionyl]-2,3,4,5-tetrahydro-1,5-benzothiazepine·fumarate]", "values": [{"measurement": "Kb", "setting": "[1]", "value": 813, "unit": "nM"}]}
{"compound": "CC(C)c1cccc(C(C)C)c1OCCNCCC(=O)N1CCCSc2ccccc21", "note": "[Compound 3, 5-[3-(2-(2,6-diisopropylphenoxy)ethylamino)-propionyl]-2,3,4,5-tetrahydro-1,5-benzothiazepine·fumarate]", "values": [{"measurement": "Antihypertensive act. (M.B.P.15)", "setting": "[2]", "value": 1.35, "unit": "µg"}, {"measurement": "LD50", "setting": "[3]", "value": 1500, "unit": "mg/kg"}]}
{"compound": "Cc1cccc(C)c1OCCNCCC(=O)N1CCCSc2ccccc21", "note": "[Compound 4, 5-[3-(2-(2,6-dimethylphenoxy)ethylamino)propionyl]-2,3,4,5-tetrahydro-1,5-benzothiazepine·fumarate]", "values": [{"measurement": "Kb", "setting": "[1]", "value": 102, "unit": "nM"}, {"measurement": "maximum increased blood flow", "setting": "[4]; 10 μg/heart", "value": 7.2, "unit": "mL"}, {"measurement": "maximum increased blood flow", "setting": "[4]; 30 μg/heart", "value": 19.2, "unit": "mL"}]}
{"compound": "O=C(CCNCCSc1ccc([N+](=O)[O-])cc1)N1CCCSc2ccccc21", "note": "[Compound 5, 5-[3-(2-(4-nitrophenylthio)ethylamino)propionyl]-2,3,4,5-tetrahydro-1,5-benzothiazepine·fumarate]", "values": [{"measurement": "Kb", "setting": "[1]", "value": 97.7, "unit": "nM"}, {"measurement": "Antihypertensive act. (M.B.P.15)", "setting": "[2]", "value": 2.0, "unit": "µg"}]}
{"compound": "Nc1cccc(OCCNCCC(=O)N2CCCSc3ccccc32)c1", "note": "[Compound 6, 5-[3-(2-(3-aminophenoxy)ethylamino)propionyl]-2,3,4,5-tetrahydro-1,5-benzothiazepine·fumarate]", "values": [{"measurement": "maximum increased blood flow", "setting": "[4]; 10 μg/heart", "value": 4.6, "unit": "mL"}, {"measurement": "maximum increased blood flow", "setting": "[4]; 30 μg/heart", "value": 6.0, "unit": "mL"}]}
{"compound": "O=C(CCNCCOc1cccc([N+](=O)[O-])c1)N1CCCSc2ccccc21", "note": "[Compound 7, 5-[3-(2-(3-nitrophenoxy)ethylamino)propionyl]-2,3,4,5-tetrahydro-1,5-benzothiazepine·fumarate]", "values": [{"measurement": "Kb", "setting": "[1]", "value": 245, "unit": "nM"}, {"measurement": "Antihypertensive act. (M.B.P.15)", "setting": "[2]", "value": 4.2, "unit": "µg"}]}
{"compound": "COc1ccc(OCCNCCC(=O)N2CCCSc3ccccc32)cc1", "note": "[Compound 8, 5-[3-(2-(4-methoxyphenoxy)ethylamino)propionyl]-2,3,4,5-tetrahydro-1,5-benzothiazepine·fumarate]", "values": [{"measurement": "Kb", "setting": "[1]", "value": 603, "unit": "nM"}]}
{"compound": "Cc1cccc(OCCNCCC(=O)N2CCCSc3ccccc32)c1", "note": "[Compound 11, 5-[3-(2-(3-methylphenoxy)ethylamino)propionyl]-2,3,4,5-tetrahydro-1,5-benzothiazepine·fumarate]", "values": [{"measurement": "maximum increased blood flow", "setting": "[4]; 3 μg/heart", "value": 7.7, "unit": "mL"}, {"measurement": "maximum increased blood flow", "setting": "[4]; 30 μg/heart", "value": 16.5, "unit": "mL"}, {"measurement": "Antihypertensive act. (M.B.P.15)", "setting": "[2]", "value": 34.7, "unit": "µg"}]}
{"compound": "Cc1cc(C)c(OCCNCCC(=O)N2CCCSc3ccccc32)c(C)c1", "note": "[Compound 12, 5-[3-(2-(2,4,6-trimethylphenoxy)ethylamino)propionyl]-2,3,4,5-tetrahydro-1,5-benzothiazepine·fumarate]", "values": [{"measurement": "Kb", "setting": "[1]", "value": 55, "unit": "nM"}, {"measurement": "maximum increased blood flow", "setting": "[4]; 10 μg/heart", "value": 11.3, "unit": "mL"}, {"measurement": "maximum increased blood flow", "setting": "[4]; 30 μg/heart", "value": 18.3, "unit": "mL"}]}
{"compound": "O=C(CCNCCOc1ccc(Cl)cc1Cl)N1CCCSc2ccccc21", "note": "[Compound 13, 5-[3-(2-(2,4-dichlorophenoxy)ethylamino)propionyl]-2,3,4,5-tetrahydro-1,5-benzothiazepine·fumarate]", "values": [{"measurement": "Kb", "setting": "[1]", "value": 126, "unit": "nM"}, {"measurement": "Antihypertensive act. (M.B.P.15)", "setting": "[2]", "value": 3.5, "unit": "µg"}]}
{"compound": "Nc1ccccc1OCCNCCC(=O)N1CCCSc2ccccc21", "note": "[Compound 15, 5-[3-(2-(2-aminophenoxy)ethylamino)propionyl]-2,3,4,5-tetrahydro-1,5-benzothiazepine·fumarate]", "values": [{"measurement": "maximum increased blood flow", "setting": "[4]; 30 μg/heart", "value": 2.0, "unit": "mL"}, {"measurement": "LD50", "setting": "[3]", "value": 374, "unit": "mg/kg"}]}
{"compound": "O=C(CCNCCOc1ccc([N+](=O)[O-])cc1)N1CCCSc2ccccc21", "note": "[Compound 16, 5-[3-(2-(4-nitrophenoxy)ethylamino)propionyl]-2,3,4,5-tetrahydro-1,5-benzothiazepine·fumarate]", "values": [{"measurement": "maximum increased blood flow", "setting": "[4]; 10 μg/heart", "value": 4.2, "unit": "mL"}]}
{"compound": "Cc1cccc(C)c1SCCNCCC(=O)N1CCCSc2ccccc21", "note": "[Compound 17, 5-[3-(2-(2,6-dimethylphenylthio)ethylamino)propionyl]-2,3,4,5-tetrahydro-1,5-benzothiazepine·fumarate]", "values": [{"measurement": "Antihypertensive act. (M.B.P.15)", "setting": "[2]", "value": 9.3, "unit": "µg"}]}
